Data: PMC7024204, “Synthesis, Crystal Structure, and Biological Activity of a Multidentate Calix[4]arene Ligand Doubly Functionalized by 2-Hydroxybenzeledene-Thiosemicarbazone” (Molecules, 2020)
≈ marks a conversion by molar mass, not a printed value. Like-named read-outs stand apart in the source and are kept apart here.

What was measured:
[1] = test system: Saos-2 cell line; assay: MTT cytotoxicity assay; assay type: cell-based, human; conditions: for IC50: Homo sapiens, Saos-2, MTT, 48 h, read-out: In vitro cytotoxic activity IC50; for anti-cancer effect: Saos-2, especially at 2.5–20 μg/mL
Protocol: (§1) The colorimetric MTT assay, introduced by Mossmann, was used for the evaluation of the anti-cancer activity of our synthesized compounds against Saos-2 and MG-63 cell lines (human bone cancer cells). These cells were obtained from the Pasteur Institute of Iran, Tehran, Iran and maintained in RPMI 1640 medium supplemented with 10% FBS and 1% benzylpenicillin/streptomycin. […] The cells without treatment were considered as the control. After 48 h, the medium was removed and replaced with 200 μL of fresh medium containing 100 μg mL^−1 MTT powder and incubated for a further 4 h. The medium was then withdrawn and 100 μL of DMSO was added to dissolve the formazan crystals inside the cells. The absorbance of solubilized formazan was detected at 570 nm with the reference wavelength of 630 nm using an ELISA plate reader (Stat Fax, 2100, Awareness Technology Inc., Palm City, FL, USA). The viability of cells in each well was calculated by the following formula:(1) viability of cells (%)=mean absorbance of sample/mean absorbance of control×100.

[2] = test system: MG-63 cell line; assay: MTT cytotoxicity assay; assay type: cell-based, human; conditions: for IC50: Homo sapiens, MG-63, MTT, 48 h, read-out: In vitro cytotoxic activity IC50; for anti-cancer effect: MG-63, especially at 2.5–20 μg/mL
Protocol: as §1

[3] = test system: P. aeruginosa (ATCC 27853); assay: Broth microdilution (serial double dilution) MIC/MBC; assay type: cell-based, Pseudomonas aeruginosa; conditions: for MIC: ATCC27853, 24 h, 37 °C, micro-broth dilution
Protocol: (§2) S. aureus (ATCC® 29213™), B. subtilis (ATCC® 6633™), E. coli (ATCC® 25922™), P. aeruginosa (ATCC® 27853™), C. albicans (ATCC® 10231™), and C. glabrata (ATCC® 2001™) were cultured onto sterile Mueller-Hinton agar plates, and incubated at 37 °C for 24 h. After incubation, a single colony was selected to inoculate a sterile tube containing 2 mL of sterile normal saline to match the turbidity of a 0.5 McFarland standard (10^8 cfu/mL). Further dilution was done with sterile normal saline to 10^5 cfu/mL before incubation.
(§3) Serial dilution of the synthesized compounds suspension in DMSO (2000–15.62 μg/mL) was done in a sterile 96-well plate. Then, 20 μL of an overnight bacterial and fungal suspension and 180 μL of the compounds suspension in MHB (and 1% glucose for fungal strains) were mixed in each well. The final concentration of DMSO was 10%. After 24 h of incubation at 37 °C, the first concentration with no bacterial growth is regarded as the minimum inhibitory concentration (MIC). Controls (microorganism strain in MHB without chemical and MHB alone) were included in each measurement. Aliquots of 5 μL from wells in which no growth was observed were spotted onto Mueller–Hinton agar plates to determine the minimum bactericidal concentration (MBC) values. The MBC was read as the lowest concentration with no growth after 24 h of incubation.

[4] = test system: B. subtilis (ATCC 6633); assay: as above; assay type: cell-based; conditions: Bacillus subtilis; for MIC: ATCC6633, 24 h, 37 °C, micro-broth dilution
Protocol: as §2, §3

[5] = test system: S. aureus (ATCC 29213); assay: as above; assay type: cell-based; conditions: Staphylococcus aureus
Protocol: as §2, §3

[6] = test system: E. coli (ATCC 25922); assay: as above; assay type: cell-based, Escherichia coli; conditions: for MIC / MBC: Escherichia coli; for MIC: ATCC25922, 24 h, 37 °C, micro-broth dilution; for MBC: ATCC25922, micro-broth dilution
Protocol: as §2, §3

[7] = test system: Saos-2 cells; assay: DAPI staining, morphology of cell nuclei; assay type: cell-based, human; conditions: Saos-2, 48 h exposure at IC50
Protocol: To visually study the apoptotic effects of the synthesized compounds (L and its Co, Ni, Cu, and Zn complexes), the 4′,6-diamidino-2-phenylindole (DAPI) staining assay was performed according to the literature procedure. Briefly, Saos-2 cells were seeded in six-well plates (5 × 10^4 cells per well) and incubated at 37 °C for 24 h. After the growth of the cells, the culture media were replaced by fresh media containing L and its metal derivatives (sterile filtered through 500 nm) at their half-maximal inhibitory growth concentration (IC50). Cells receiving no treatment were considered as the control group. After 48 h, the cells were washed three times with fresh PBS (pH 7.4) to remove any chemical compounds. Subsequently, the cells were fixed with 4 wt% paraformaldehyde for 15 min at room temperature. Afterwards, the cells were washed three times with PBS and permeabilized with Triton X-100 (0.1% w/v) for 5 min. The cells were washed again with PBS and stained with 300 ng mL^−1 DAPI for 15 min. DNA condensation and fragmentation in apoptotic cells were evaluated under a fluorescence microscope.

[8] = test system: C. albicans (ATCC 10231); assay: Broth microdilution (serial double dilution) MIC/MBC; assay type: cell-based, Candida albicans; conditions: for MIC: 37 °C, micro-broth dilution
Protocol: as §2, §3

[9] = test system: C. glabrata (ATCC 2001); assay: Broth microdilution (serial double dilution) MIC/MBC; assay type: cell-based, Candida glabrata; conditions: 24 h, 37 °C, micro-broth dilution
Protocol: as §2, §3

[10] = test system: C. albicans (ATCC 10231); parameters: method as in PMID 31649917; conditions: cited from earlier work
[11] = test system: Saos-2 cell line; parameters: method as in PMID 31649917; conditions: Saos-2, thiosemicarbazide ligand and metal derivatives; cited from earlier work

Compound	IC50 [1] [µg/mL]	anti-cancer effect [1]	IC50 [2] [µg/mL]	anti-cancer effect [2]	MIC ([3]; Pseudomonas aeruginosa) [µg/mL]	MIC [4] [µg/mL]	MIC [6] [µg/mL]	MBC [6] [µg/mL]	also measured
COc1cccc2c1C(=O)c1c(O)c3c(c(O)c1C2=O)C[C@@](O)(C(=O)CO)C[C@@H]3O[C@H]1C[C@H](N)[C@H](O)[C@H](C)O1 [DOX, doxorubicin]	2.1 (≈ 3.86 µM)	strong anti-cancer effects	10.1 (≈ 18.6 µM)	strong anti-cancer effects					
CNC(C)C1CCC(N)C(OC2C(N)CC(N)C(OC3OCC(C)(O)C(NC)C3O)C2O)O1 (stereo not shown) [Gentamicin]					2 (≈ 4.19 µM)	2 (≈ 4.19 µM)	0.5 (≈ 1.05 µM)	0.5 (≈ 1.05 µM)	MBC ([3]; Pseudomonas aeruginosa, ATCC27853, micro-broth dilution): 2 µg/mL (≈ 4.19 µM); MBC ([4]; ATCC6633, micro-broth dilution): 2 µg/mL (≈ 4.19 µM); MIC ([5]; ATCC29213, 24 h, 37 °C, micro-broth dilution): 0.12 µg/mL (≈ 0.251 µM); MBC ([5]; ATCC29213, micro-broth dilution): 0.25 µg/mL (≈ 0.523 µM)
CC(C)(C)c1cc2c(O)c(c1)Cc1cc(C(C)(C)C)cc(c1OCCNC(=S)NN=Cc1ccccc1O)Cc1cc(C(C)(C)C)cc(c1O)Cc1cc(C(C)(C)C)cc(c1OCCNC(=S)NN=Cc1ccccc1O)C2 [Ligand L, 5, 11, 17, 23-tetra-tert-butyl-26, 28-dihydroxy-25, 27-bis(2(2-hydroxybenzeledene)thiosemicarbazonoethoxy) calix[4]arene]	< 25		> 200		31.2 (≈ 28.6 µM)	31.2 (≈ 28.6 µM)	31.2 (≈ 28.6 µM)	31.2 (≈ 28.6 µM)	morphology of cell nuclei (DAPI-stained cells) [7]: deformed and fragmented nuclei; improvement of MIC in comparison with thiosemicarbazide equivalent [3]: 2 fold; antifungal activity [8]: strong; MIC ([8]; Candida albicans, ATCC10231, 24 h, read-out: MIC): 31.2 µg/mL (≈ 28.6 µM); MBC ([8]; Candida albicans, ATCC10231, micro-broth dilution): 125 µg/mL (≈ 115 µM); antifungal activity ([8]; listed as thiosemicarbazone schiff-base ligand): significant antifungal activity; melting point: 230 °C (dec.); improvement of MIC in comparison with thiosemicarbazide equivalent [6]: 8 fold
CN(Cc1cnc2nc(N)nc(N)c2n1)c1ccc(C(=O)N[C@@H](CCC(=O)O)C(=O)O)cc1 [MTX, Methotrexate]	7.9 (≈ 17.4 µM)	strong anti-cancer effects	14.5 (≈ 31.9 µM)	strong anti-cancer effects					
C[C@@H]1[C@H](O)[C@@H](C)/C=C/C=C/CC/C=C/C=C/C=C/C=C/C(O[C@H]2O[C@H](C)[C@@H](O)[C@H](N)[C@@H]2O)CC2O[C@](O)(CC(O)C(O)CCC(O)CC(O)CC(O)CC(=O)O[C@H]1C)CC(O)C2C(=O)O (stereo partly shown) [Nystatin]									MIC ([8]; 24 h): 1.25 µg/mL (≈ 1.35 µM); MIC [9]: 0.625 µg/mL (≈ 0.675 µM)
Bisthiosemicarbazide-substituted p-tert-butylcalix[4]arene [thiosemicarbazide ligand]									antifungal activity [10]: resistant; IC50 [11]: > 200 µg/mL
